# Measurements taken from PubChem BioAssay AID212 (DTP/NCI, 2004).
# Where “and” joins values, the source holds several entries; their conditions need not be identical. Identical values can stand only once. Inconclusive results are not listed.
# Tested on: BDF1 mice, colon carcinoma 38 sc, T/C %
# Assay: NCI In Vivo Anticancer Drug Screen. Data for tumor model Colon Carcinoma 38 (subcutaneous) in B6D2F1 (BDF1) mice
# Summary of the method: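 Transplantable tumor in mice; compound-treated vs vehicle-dosed controls. Measured survival or tumor size; value = T ÷ C.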
# [1] = endpoint: median tumor weight (est.), dose: 50.0 mg/kg/injection, schedule: Q07DX002 (ip), vehicle: saline, higher = larger tumour
# [2] = endpoint: median tumor weight (est.), dose: 100.0 mg/kg/injection, schedule: Q07DX002 (ip), vehicle: saline, higher = larger tumour
# [3] = endpoint: median tumor weight (est.), dose: 200.0 mg/kg/injection, schedule: Q07DX002 (ip), vehicle: saline, higher = larger tumour
# [4] = endpoint: median tumor weight (est.), dose: 400.0 mg/kg/injection, schedule: Q07DX002 (ip), vehicle: saline, higher = larger tumour
# [5] = endpoint: median tumor weight (est.), dose: 50.0 mg/kg/injection, schedule: Q07DX002 (ip), vehicle: Klucel (hydroxypropylcellulose) (HPC), higher = larger tumour
# [6] = endpoint: median tumor weight (est.), dose: 100.0 mg/kg/injection, schedule: Q07DX002 (ip), vehicle: Klucel (hydroxypropylcellulose) (HPC), higher = larger tumour
# [7] = endpoint: median tumor weight (est.), dose: 400.0 mg/kg/injection, schedule: Q07DX002 (ip), vehicle: Klucel (hydroxypropylcellulose) (HPC), higher = larger tumour
compound,measurement,setting,value
O=c1[nH]c(=O)n(C2CC(O)C(CO)O2)cc1I (centres undefined),T/C,"endpoint: median tumor weight (est.), dose: 50.0 mg/kg/injection, schedule: Q07DX002 (ip), vehicle: saline with Tween-80, higher = larger tumour",79 % of control
same,T/C,[1],44 % of control
same,T/C,"endpoint: median tumor weight (est.), dose: 100.0 mg/kg/injection, schedule: Q07DX002 (ip), vehicle: saline with Tween-80, higher = larger tumour",69 % of control
same,T/C,[2],50 % of control
same,T/C,"endpoint: median tumor weight (est.), dose: 200.0 mg/kg/injection, schedule: Q07DX002 (ip), vehicle: saline with Tween-80, higher = larger tumour",102 % of control
same,T/C,[3],44 % of control
same,T/C,"endpoint: median tumor weight (est.), dose: 200.0 mg/kg/injection, schedule: Q07DX002 (ip), vehicle: suspension in saline, higher = larger tumour",57 % of control
same,T/C,"endpoint: median tumor weight (est.), dose: 400.0 mg/kg/injection, schedule: Q07DX002 (ip), vehicle: saline with Tween-80, higher = larger tumour",105 % of control
same,T/C,[4],44 % of control
same,T/C,"endpoint: median tumor weight (est.), dose: 400.0 mg/kg/injection, schedule: Q07DX002 (ip), vehicle: suspension in saline, higher = larger tumour",102 % of control
same,T/C,"endpoint: median tumor weight (est.), dose: 800.0 mg/kg/injection, schedule: Q07DX002 (ip), vehicle: saline with Tween-80, higher = larger tumour",75 % of control
same,T/C,"endpoint: median tumor weight (est.), dose: 800.0 mg/kg/injection, schedule: Q07DX002 (ip), vehicle: saline, higher = larger tumour",18 % of control
same,T/C,"endpoint: median tumor weight (est.), dose: 800.0 mg/kg/injection, schedule: Q07DX002 (ip), vehicle: suspension in saline, higher = larger tumour",59 % of control
same,T/C,"endpoint: median tumor weight (est.), dose: 1600.0 mg/kg/injection, schedule: Q07DX002 (ip), vehicle: saline with Tween-80, higher = larger tumour",48 % of control
same,T/C,"endpoint: median tumor weight (est.), dose: 1600.0 mg/kg/injection, schedule: Q07DX002 (ip), vehicle: saline, higher = larger tumour",1 % of control
C1CN1c1nc(N2CC2)nc(N2CC2)n1,T/C,"endpoint: median tumor weight (est.), dose: 0.25 mg/kg/injection, schedule: Q07DX003 (ip), vehicle: saline, higher = larger tumour",30 % of control
same,T/C,"endpoint: median tumor weight (est.), dose: 0.5 mg/kg/injection, schedule: Q07DX003 (ip), vehicle: saline, higher = larger tumour",43 % of control
same,T/C,"endpoint: median tumor weight (est.), dose: 1.0 mg/kg/injection, schedule: Q07DX003 (ip), vehicle: saline, higher = larger tumour",36 % of control
c1cc[c]([Sn]([NH]c2ncnc3[nH]cnc23)([NH]c2ncnc3[nH]cnc23)[c]2ccccc2)cc1,T/C,"endpoint: median tumor weight (est.), dose: 25.0 mg/kg/injection, schedule: Q07DX002 (ip), vehicle: saline, higher = larger tumour",51 % of control
same,T/C,[1],84 % of control
same,T/C,[2],46 % of control
same,T/C,[3],81 % of control
same,T/C,[4],66 % of control
Cn1c(N)c(C(=O)/C=C/c2ccccc2)c(=O)n(C)c1=O,T/C,"endpoint: median tumor weight (est.), dose: 25.0 mg/kg/injection, schedule: Q07DX002 (ip), vehicle: Klucel (hydroxypropylcellulose) (HPC), higher = larger tumour",114 % of control
same,T/C,[5],112 % of control
same,T/C,[6],109 % of control
same,T/C,[7],123 % of control
CN1CCc2c(c3ccccc3c3ccccc23)C1,T/C,"endpoint: median tumor weight (est.), dose: 6.25 mg/kg/injection, schedule: Q07DX002 (ip), vehicle: Klucel (hydroxypropylcellulose) (HPC), higher = larger tumour",111 % of control
same,T/C,"endpoint: median tumor weight (est.), dose: 12.5 mg/kg/injection, schedule: Q07DX002 (ip), vehicle: Klucel (hydroxypropylcellulose) (HPC), higher = larger tumour",93 % of control
same,T/C,[5],86 % of control
same,T/C,[6],72 % of control
CC[C@@]1(O)C[C@H](OC2CC(N(C)C)C(OC3CC(O)C(OC4CCC(=O)C(C)O4)C(C)O3)C(C)O2)c2c(cc3c(c2O)C(=O)c2c(O)cccc2C3=O)[C@H]1C(=O)OC (some centres undefined),T/C,"endpoint: median survival time, dose: 5.3 mg/kg/injection, schedule: Q07DX002 (iv), vehicle: water, higher = longer survival",114 % of control
same,T/C,"endpoint: median survival time, dose: 8.3 mg/kg/injection, schedule: Q07DX002 (iv), vehicle: water, higher = longer survival",105 % of control
same,T/C,"endpoint: median survival time, dose: 20.0 mg/kg/injection, schedule: Q07DX002 (iv), vehicle: water, higher = longer survival",115 % of control
same,T/C,"endpoint: median tumor weight (est.), dose: 0.75 mg/kg/injection, schedule: Q07DX002 (ip), vehicle: water, higher = larger tumour",67 % of control
same,T/C,"endpoint: median tumor weight (est.), dose: 0.75 mg/kg/injection, schedule: Q07DX003 (ip), vehicle: water, higher = larger tumour",98 % of control
same,T/C,"endpoint: median tumor weight (est.), dose: 1.5 mg/kg/injection, schedule: Q07DX003 (ip), vehicle: water, higher = larger tumour",123 % of control
same,T/C,"endpoint: median tumor weight (est.), dose: 3.0 mg/kg/injection, schedule: Q07DX003 (ip), vehicle: water, higher = larger tumour",103 % of control
same,T/C,"endpoint: median tumor weight (est.), dose: 6.0 mg/kg/injection, schedule: Q07DX003 (ip), vehicle: water, higher = larger tumour",75 % of control
same,T/C,"endpoint: median tumor weight (est.), dose: 12.0 mg/kg/injection, schedule: Q07DX003 (ip), vehicle: water, higher = larger tumour",40 % of control
CCC1=C[C@H]2CN(CCc3c([nH]c4ccccc34)[C@@](C(=O)OC)(c3cc4c(cc3OC)N(C)[C@H]3[C@@](O)(C(=O)OC)[C@H](OC(C)=O)[C@]5(CC)C=CCN6CC[C@]43[C@@H]65)C2)C1,T/C,"endpoint: median tumor weight (est.), dose: 4.0 mg/kg/injection, schedule: Q07DX002 (ip), vehicle: water, higher = larger tumour",75 % of control and 82 % of control
C[C@@H]1C(=O)C[C@H]2C(C)(C)CCC[C@]2(C)[C@@]1(O)CCc1ccoc1,T/C,[5],74 % of control
same,T/C,"endpoint: median tumor weight (est.), dose: 200.0 mg/kg/injection, schedule: Q07DX002 (ip), vehicle: Klucel (hydroxypropylcellulose) (HPC), higher = larger tumour",84 % of control
same,T/C,[7],67 % of control
